Earlier results as cited in US6413950B1, “Pharmaceutical preparation containing dithranol” (esparma GmbH, priority 1999, dated 2002).

Details: background statement on the active agent dithranol

solubility in water: not soluble in water
Structure (SMILES): O=C1c2c(O)cccc2Cc2cccc(O)c21 [Dithranol]
